Measurements as given in patent US7494980B2, “Antimicrobial peptide and methods of use thereof” (The United States of America as represented by the …, priority 2003, dated 2009).

Test system: saliva bacteria (facultative anaerobic oral bacteria collected from saliva)
Test: In vitro killing of saliva bacteria
Assay type: cell-based
Conditions: 0.5 h; chlorhexidine 0.12%, positive control; data not shown; read-out: log reduction in facultative anaerobic saliva organisms
Description: The killing assay of saliva bacteria was done according to procedures established by Helmerhorst et al. (1999). Unstimulated saliva was collected from four healthy individuals who had refrained from eating for at least 2 hours. The study was approved by the Institutional Review Board of the Walter Reed Army Institute of Research and informed consent and sample donation consent were obtained from all volunteers. Pooled saliva was initially spun at 500 r.p.m. in an Eppendorf centrifuge (model 5810R) for 10 min at 4° C. to remove epithelial cells and mucus. Saliva bacteria were collected by spinning the supernatant at 4000 r.p.m. for 15 min at 4° C. The pellet was washed three times in 10 mM potassium phosphate buffer (PPB) and suspended in the same buffer to give approximately 1.0×10^7 cells ml^−1. Bacterial suspension (250 μl) was mixed with 250 μl peptide to obtain final peptide concentrations of 12.5, 25, 50, 100 and 200 μg ml^−1. After incubation of the mixture at 37° C. for 30 min, cells were spun down to remove KSL, washed once in PBS having a pH of 7.4 and suspended in PBS before spiral-plating 50 μl of the treated and untreated cells in different dilutions on BAP. The negative control was exposed to buffer only. Saliva bacteria exposed to 0.12% aqueous chlorhexidine served as positive controls. […]

With `[H]/N=C(\N/C(=N/[H])NCCCCCCNC(=N)NC(=N)Nc1ccc(Cl)cc1)Nc1ccc(Cl)cc1` [chlorhexidine, reference compound] the log reduction at 0.12 % was > 3.
